This note sets out measurements from patent US11999758B2, “Inhibitors of the YAP/TAZ-TEAD interaction and their use in the treatment of cancer” (INVENTIVA, priority 2018, dated 2024).

This assay has as its target T1, YAP-TEAD interaction (Homo sapiens, UniProt P28347).
T1 construct: expressed in transfected cells; host or cells: HEK293 GripTite 293 MSR (Invitrogen R795-07)
Kind of assay: Cell-based TEAD-GAL4 transactivation assay (luciferase reporter). Particulars: HEK293 cells transfected with TEAD1-Gal4, YAP mutant (S127A, S397A) and luciferase reporter, compounds 0.1 μM to 30 μM; for Emax: HEK293, 24 h, read-out: TEAD-GAL4 Transactivation activity Max Act; for IC50: 24 h. As to the method: To identify inhibitors of YAP-TEAD interaction, a transient transactivation assay was carried out on HEK293 cell line (HEK293 GripTite™ 293 MSR (Invitrogen R795-07)) using plasmids containing the full length TEAD1 sequences, the full length YAP mutant (S127A, S397A) and a luciferase gene reporter. All expression constructs were performed into a pSG5 backbone plasmid in which the SV40 promoter was replaced by the CMV promoter. The TEAD1 construct was prepared by cloning the full-length human TEAD1 cDNA in fusion with the Gal4 DNA Binding Domain (AA 1-148) into pSG5_CMV to create the TEAD1 (FL)_hum_pSG5Gal4_CMV. The full-length YAP mutant (S127A, S397A) was also cloned into pSG5_CMV to create the YAP (FL)_hum_pSG5_mutS127A_S397A_CMV. The reporter plasmid GAL4(5×RE)_TK(−105/+56)_pGL3-Basic contains 5 copies of the GAL4 responsive element (5′-TCGGAGGACAGTACTCC-3′) upstream of the thymidine kinase (TK) promoter (−105/+56) inserted in a pGL3-Basic vector. To evaluate the selectivity of our compounds in blocking the YAP-TEAD interaction, a counter-screening protein-protein interaction transactivation assay was also established. Briefly, two other expression plasmids, the pBD-P53 which expresses the P53 (AA 72-390) in fusion with Gal4 and the pAD-SV40T which expresses the SV40 large T antigen (AA 84-708,AgT), were created. HEK293 cells were seeded at 5×10^4 cells/well in 96 well plates (assay plates) in DMEM medium containing 4.5 g/L D-glucose, 10% high inactivated (HI) fetal bovine serum 1% Glutamax, 1% non-essential amino acid and 1% sodium pyruvate and 0.5% penicillin/streptomycin at 37° C. in a humidified atmosphere of 8% CO2. After 24 h, transfections were performed using Jet-PEI as transfectant (101B-010 Polyplus Transfection), according to the instructions of the manufacturer (N/P=10) and a ratio YAP/TEAD=10 (per well: 50 ng of YAP(FL), 5 ng of TEAD(FL) and 50 ng of reporter plasmid). Six hours after cell transfection, the plates (‘assay plate’) were washed with 100 μl PBS per well and cells were treated with compounds in semi-log from 0.1 μM to 30 μM or DMSO 0.5% as control in DMEM, 4.5 g/L D-Glucose without phenol red, 0.3% BSA, 1% glutamax, 1% NEAA, 1% sodium pyruvate. 24 h later, the luciferase activity was determined after addition of 100 μl of Steady Glo™ luciferase assay system (Promega E2550) according to the manufacturer's directions. Luciferase activity in cell extracts was measured by reading luminescence using the Envision device.
The cellular response was determined by fitting the concentration response curves using a 3-parameter curve fit equation and determining the concentration that inhibited the luciferase activity by 50%.
On the technique in general: Reporter assays use an easily measured gene product as a stand-in for the process of interest.

T1 sequence (P28347 whole entry): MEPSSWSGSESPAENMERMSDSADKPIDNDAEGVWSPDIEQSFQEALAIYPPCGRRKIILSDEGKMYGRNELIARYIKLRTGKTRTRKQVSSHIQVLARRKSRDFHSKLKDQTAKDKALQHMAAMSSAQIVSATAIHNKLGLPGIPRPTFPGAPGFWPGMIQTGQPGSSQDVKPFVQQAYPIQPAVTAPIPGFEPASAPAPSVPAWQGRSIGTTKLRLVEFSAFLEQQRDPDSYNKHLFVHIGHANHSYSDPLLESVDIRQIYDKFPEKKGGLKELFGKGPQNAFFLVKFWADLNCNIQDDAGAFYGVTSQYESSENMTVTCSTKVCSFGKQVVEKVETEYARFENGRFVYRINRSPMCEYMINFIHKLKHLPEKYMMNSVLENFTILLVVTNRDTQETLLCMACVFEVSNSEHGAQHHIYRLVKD

As usually defined, the IC50 is the point on the concentration scale where inhibition reaches its midpoint. The low end stands for greater potency in that assay, the high end for weaker potency in that assay. On to `COc1ccc2c(c1)C(N(C)/N=C/c1ccc3c(c1)COB3O)=NS2(=O)=O` [Ex 37, N-[(E)-(1-hydroxy-3H-2,1-benzoxaborol-5-yl)methyleneamino]-5-methoxy-N-methyl-1,1-dioxo-1,2-benzothiazol-3-amine], for which the Emax was 92% and the concentration for half-maximal inhibition (IC50) is 4550 nM.

Regarding `CCN(/N=C/c1ccc(B(O)O)c(OC)c1)c1ncnc2occc12` [Ex65, [4-[(E)-[ethyl(furo[2,3-d]pyrimidin-4-yl)hydrazono]methyl]-2-methoxy-phenyl]boronic acid], the Emax was found to be 92% and the midpoint of inhibition, the IC50, lay at 1980 nM.

On to `CN(/N=C/c1ccc2c(c1)COB2O)c1ncnc2c(N3CCOCC3)csc12` [Ex104, N-[(E)-(1-hydroxy-3H-2,1-benzoxaborol-5-yl)methyleneamino]-N-methyl-7-morpholino-thieno[3,2-d]pyrimidin-4-amine], for which the Emax came to 79% and it took 1760 nM to reach half-maximal inhibition (IC50). Regarding `CC(C)CN(/N=C/c1ccc(B(O)O)c(Cl)c1)C1=NS(=O)(=O)c2ccccc21` [Ex 6, [2-chloro-4-[(E)-[(1,1-dioxo-1,2-benzothiazol-3-yl)-isobutyl-hydrazono]methyl]phenyl] boronic acid], the Emax worked out at 62%.

With `CCN(/N=C/c1ccc2c(c1)COB2O)c1ncnc2c1ccn2CC` [Ex85, N,7-diethyl-N-[(E)-(1-hydroxy-3H-2,1-benzoxaborol-5-yl)methyleneamino]pyrrolo [2,3-d]pyrimidin-4-amine], the Emax is 81% and it took 610 nM to reach half-maximal inhibition (IC50). With `COc1cc(/C=N/N(CC(C)C)C2=NS(=O)(=O)c3ccc(C)cc32)ccc1B(O)O` [Ex 7, [4-[(E)-[isobutyl-(5-methyl-1,1-dioxo-1,2-benzothiazol-3-yl)hydrazono]-methyl]-2-methoxy-phenyl]boronic acid], the Emax was found to be 95% and it took 3430 nM to reach half-maximal inhibition (IC50). In the case of `CCN(/N=C/c1ccc2c(c1)COB2O)c1ncnc2c1ccn2C` [Ex 44, N-ethyl-N-[(E)-(1-hydroxy-3H-2,1-benzoxaborol-5-yl)methyleneamino]-7-methyl-pyrrolo[2,3-d]pyrimidin-4-amine], the Emax is 78% and the half-inhibitory concentration (IC50) came out at 920 nM. Turning to `CCN(/N=C/c1ccc2c(c1)COB2O)c1ncnc2cc(C)sc12` [Ex90, N-ethyl-N-[(E)-(1-hydroxy-3H-2,1-benzoxaborol-5-yl)methyleneamino]-6-methyl-thieno[3,2-d]pyrimidin-4-amine], the Emax stood at 83% and inhibition was half-maximal at 1260 nM (IC50). On to `COc1cc(/C=N/N(CC(C)C)C2=NS(=O)(=O)c3cc(C#N)ccc32)ccc1B(O)O` [Ex 10, [4-[(E)-[(6-cyano-1,1-dioxo-1,2-benzothiazol-3-yl)-isobutyl-hydrazono]-methyl]-2-methoxy-phenyl]boronic acid], for which the Emax came to 78% and the 50% inhibitory concentration (IC50) worked out at 4360 nM. Turning to `COc1cccc2c(N3N=C(c4ccc5c(c4)COB5O)CCC3C)ncnc12` (centres unmarked) [Ex 56, 4-[6-(1-hydroxy-3H-2,1-benzoxaborol-5-yl)-3-methyl-4,5-dihydro-3H-pyridazin-2-yl]-8-methoxy-quinazoline], the Emax is 84% and the half-inhibitory concentration (IC50) is 1000 nM. On to `COCCN(/N=C/c1ccc(B(O)O)c(OC)c1)C1=NS(=O)(=O)c2ccccc21` [Ex 5, [4-[(E)-[(1,1-dioxo-1,2-benzothiazol-3-yl)-(2-methoxyethyl)-hydrazono]methyl]-2-methoxy-phenyl]boronic acid], for which the Emax was 67% and it took 7100 nM to reach half-maximal inhibition (IC50).

In the case of `Cc1csc2c(N3N=C(c4ccc5c(c4)COB5O)CCC3C)ncnc12` (single isomer, unassigned; (+)) [Ex119, (+) 4-[6-(1-hydroxy-3H-2,1-benzoxaborol-5-yl)-3-methyl-4,5-dihydro-3H-pyridazin-2-yl]-7-methyl-thieno[3,2-d]pyrimidine], the Emax was determined as 77% and half-maximal inhibition (IC50) required 430 nM. `COCCOc1cc(/C=N/N(CC(C)C)C2=NS(=O)(=O)c3ccccc32)ccc1B(O)O` [Ex 11, [4-[(E)-[(1,1-dioxo-1,2-benzothiazol-3-yl)-isobutyl-hydrazono]methyl]-2-(2-methoxyethoxy)phenyl]boronic acid]: the Emax came to 85%. Turning to `COc1cc(C2=NN(C3=NS(=O)(=O)c4ccccc43)CC(C)(C)C2)ccc1B(O)O` [Ex 57, [4-[2-(1,1-dioxo-1,2-benzothiazol-3-yl)-4,4-dimethyl-3,5-dihydro-pyridazin-6-yl]-2-methoxy-phenyl]boronic acid], the Emax worked out at 84% and the concentration for half-maximal inhibition (IC50) stood at 3060 nM. With `CCN(/N=C/c1ccc2c(c1)COB2O)c1ncnc2[nH]ncc12` [Ex86, N-ethyl-N-[(E)-(1-hydroxy-3H-2,1-benzoxaborol-5-yl)methyleneamino]-1H-pyrazolo[3,4-d]pyrimidin-4-amine], the Emax was determined as 81% and the IC50 turned out to be 650 nM.

For the molecule `CN(/N=C/c1ccc2c(c1)COB2O)c1ncnc2c1CC(=O)N2C1CCC1` [Ex111, 7-cyclobutyl-4-[[(E)-(1-hydroxy-3H-2,1-benzoxaborol-5-yl)methyleneamino]-methyl-amino]-5H-pyrrolo[2,3-d]pyrimidin-6-one], the Emax stood at 83% and the IC50 worked out at 1580 nM. For the molecule `COc1cc(OC)c2ncnc(N(CC(C)C)/N=C/c3ccc(B(O)O)c(OC)c3)c2c1` [Ex 17, [4-[(E)-[(6,8-dimethoxyquinazolin-4-yl)-isobutyl-hydrazono]methyl]-2-methoxyphenyl]boronic acid], the Emax came out at 98% and the IC50 is 7740 nM. As for `COc1cc(C2=NN(C3=NS(=O)(=O)c4ccccc43)CC(C)O2)ccc1B(O)O` (centres unmarked) [Ex 58, [4-[4-(1,1-dioxo-1,2-benzothiazol-3-yl)-6-methyl-5,6-dihydro-1,3,4-oxadiazin-2-yl]-2-methoxy-phenyl]boronic acid], the Emax came to 81% and half-maximal inhibition (IC50) was put at 3240 nM.

As to `COc1ccc2c(c1)C(N(CC(C)C)/N=C/c1ccc(B(O)O)c(OC)c1)=NS2(=O)=O` [Ex 2, [4-[(E)-[isobutyl-(5-methoxy-1,1-dioxo-1,2-benzothiazol-3-yl)hydrazono]methyl]-2-methoxy-phenyl]boronic acid], the Emax worked out at 95% and the IC50 is 2280 nM. `CCN(/N=C/c1ccc2c(c1)COB2O)c1ncnc2sccc12` [Ex 40, N-ethyl-N-[(E)-(1-hydroxy-3H-2,1-benzoxaborol-5-yl)methyleneamino]-thieno[2,3-d]pyrimidin-4-amine]: the Emax worked out at 85% and the midpoint of inhibition, the IC50, lay at 690 nM. For `COc1cc(/C=N/N(C)c2cc(C)cnn2)ccc1B(O)O` [Ex 59, [2-methoxy-4-[(E)-[methyl-(5-methylpyridazin-3-yl)hydrazono]methyl]-phenyl] boronic acid], the Emax came to 71%. Regarding `CCN(/N=C/c1ccc(B(O)O)c(OC)c1)c1ncnc2c1ccn2C` [Ex66, [4-[(E)-[ethyl-(7-methylpyrrolo[2,3-d]pyrimidin-4-yl)hydrazono]methyl]-2-methoxy-phenyl]boronic acid], the Emax was found to be 87% and it took 2150 nM to reach half-maximal inhibition (IC50). As to `CSc1nc2ncnc(N3N=C(c4ccc5c(c4)COB5O)CCC3C)c2s1` (centres unmarked) [Ex123, 7-[6-(1-hydroxy-3H-2,1-benzoxaborol-5-yl)-3-methyl-4,5-dihydro-3H-pyridazin-2-yl]-2-methylsulfanyl-thiazolo[4,5-d]pyrimidine], the Emax was found to be 96% and the IC50 came to 200 nM. Regarding `CN(/N=C/c1ccc2c(c1)COB2O)c1ncnc2c(-c3ccccc3)csc12` [Ex102, N-[(E)-(1-hydroxy-3H-2,1-benzoxaborol-5-yl)methyleneamino]-N-methyl-7-phenyl-thieno[3,2-d]pyrimidin-4-amine], the Emax stood at 87% and the IC50 turned out to be 1990 nM. In the case of `COc1cc(C2=NN(c3ncnc4c(OC)cccc34)C(C)CC2)ccc1B(O)O` (centres unmarked) [Ex 55, [2-methoxy-4-[2-(8-methoxyquinazolin-4-yl)-3-methyl-4,5-dihydro-3H-pyridazin-6-yl]phenyl]boronic acid], the Emax turned out to be 92% and the IC50 turned out to be 1530 nM.
